Data on twelve compounds can be found in patent US8778973B2, “Alkene oxindole derivatives” (Hoffmann-La Roche Inc., priority 2009, dated 2014).

The test relates to Recombinant human AMPK proteins (α1β1γ1, α2β1γ1, α1(1-335), α1(1-394) or α2(1-394)). The test can be described thus: Scintillation Proximity Assay (SPA) of AMPK activation. It counts as biochemical. As to conditions: activator concentration for 50% of maximal enzyme activity; 50 nM recombinant AMPK, 2 μM ATP, 30° C., 2 hr. On the procedure: Recombinant human AMPK α1β1γ1, α2β1γ1 or AMPK α subunit truncations α1(1-335), α1(1-394) and α2(1-394) were constructed, expressed and purified as described previously (Pang, T., Zhang, Z. S., Gu, M., Qiu, B. Y., Yu, L. F., Cao, P. R., Shao, W., Su, M. B., Li, J. Y., Nan, F. J., and Li, J. (2008)). Rat liver AMPK heterotrimer enzyme was obtained from Upstate (Billerica, Mass., U.S.A.).
Scintillation Proximity Assay
Before the Scintillation Proximity Assay (SPA) assay, 200 nM recombinant AMPK proteins (α1β1γ1, α2β1γ1, α1(1-335), α1(1-394) or α2(1-394)) were fully phosphorylated as described previously (Pang et al., 2008). SPA reactions were performed in 96-well plates at a final volume of 501 containing 20 mM Tris-HCl pH 7.5, 5 mM MgCl2, 1 mM DTT, 2 μM biotin-SAMS, 2 μM ATP, 0.2 μCi/well [γ-^33P]ATP, and various amount of activator. Reactions were initiated by the addition of 50 nM recombinant AMPK proteins to the reaction solutions and incubated at 30° C. for 2 hr. After that, reactions were terminated by the addition of 401 stop solution containing 80 μg streptavidin-coated SPA beads per well, 50 mM EDTA, 0.1% Triton X-100 in PBS, pH 7.5 and incubated for 1 hr. Finally, a 160 ul suspension solution containing 2.4 M CsCl, 50 mM EDTA, and 0.1% Triton X-100 in PBS (pH 7.5) was added to the reaction solution to suspend SPA beads completely. SPA signals were determined with a Wallac MicroBeta plate counter (PerkinElmer) 30 min later for calculation of the amount of product formed. The amount of products formed in 2 hr was plotted against activator concentrations to determine the effective concentration of the activator (EC50) required for 50% of maximal enzyme activity.
Compounds as described above have EC50 values between 0.5 uM and 50 uM, preferred compounds have EC50 values between 0.5 uM and 10 uM, particularly preferred compounds have EC50 values between 0.5 uM and 1 uM.

On to `O=C(O)c1cccc(CN2C(=O)/C(=C(\c3ccccc3)c3cc(Cl)cc(Cl)c3)c3ccccc32)c1` [Example 54, 3-{3-[1-(3,5-Dichloro-phenyl)-1-phenyl-meth-(E)-ylidene]-2-oxo-2,3-dihydro-indol-1-ylmethyl}-benzoic acid], for which the 50% effective concentration (EC50) – broadly, the midpoint of the concentration-response curve – came to 5.14 µM. For `O=C(O)c1cccc(CN2C(=O)/C(=C(\c3ccccc3)c3cccc(Cl)c3Cl)c3ccccc32)c1` [Example 55, 3-{3-[1-(2,3-Dichloro-phenyl)-1-phenyl-meth-(E)-ylidene]-2-oxo-2,3-dihydro-indol-1-ylmethyl}-benzoic acid] the value was 2.94 µM; for `O=C(O)c1ccccc1CN1C(=O)/C(=C(\c2ccccc2)c2ccc(Cl)cc2)c2ccccc21` [Example 56, 2-{3-[1-(4-Chloro-phenyl)-1-phenyl-meth-(E)-ylidene]-2-oxo-2,3-dihydro-indol-1-ylmethyl}-benzoic acid], 4.24 µM; for `O=C(O)c1ccc(CN2C(=O)/C(=C(\c3ccccc3)c3ccc(Cl)cc3)c3ccccc32)cc1` [Example 57, 4-{3-[1-(4-Chloro-phenyl)-1-phenyl-meth-(E)-ylidene]-2-oxo-2,3-dihydro-indol-1-ylmethyl}-benzoic acid], 2.17 µM.

For `COc1ccc2c(c1)/C(=C(/c1ccccc1)c1ccc(Cl)cc1)C(=O)N2Cc1cccc(C(=O)O)c1` [Example 58, 3-{3-[1-(4-Chloro-phenyl)-1-phenyl-meth-(E)-ylidene]-5-methoxy-2-oxo-2,3-dihydro-indol-1-ylmethyl}-benzoic acid], the EC50 is 4.87 µM. Under `O=C(O)c1ccc(CN2C(=O)/C(=C(\c3ccccc3)c3ccc(Cl)cc3)c3ccccc32)nc1` [Example 59, 6-{3-[1-(4-Chloro-phenyl)-1-phenyl-meth-(E)-ylidene]-2-oxo-2,3-dihydro-indol-1-ylmethyl}-nicotinic acid] stands 5.19 µM. Regarding `O=C(O)c1cccc(CN2C(=O)/C(=C(\c3ccccc3)c3ccc(Cl)cc3)c3c(F)cccc32)c1` [Example 60, 3-{3-[1-(4-Chloro-phenyl)-1-phenyl-meth-(E)-ylidene]-4-fluoro-2-oxo-2,3-dihydro-indol-1-ylmethyl}-benzoic acid], the EC50 was determined as 1.24 µM. For `O=C(O)c1cccc(CN2C(=O)/C(=C(\c3ccccc3)c3ccc(Cl)cc3)c3ccc(F)cc32)c1` [Example 61, 3-{3-[1-(4-Chloro-phenyl)-1-phenyl-meth-(E)-ylidene]-6-fluoro-2-oxo-2,3-dihydro-indol-1-ylmethyl}-benzoic acid] the value was 4.93 µM; for `CSc1ccccc1/C(=C1/C(=O)N(Cc2cccc(C(=O)O)c2)c2ccccc21)c1ccccc1` [Example 62, 3-{3-[1-(2-Methylsulfanyl-phenyl)-1-phenyl-meth-(E)-ylidene]-2-oxo-2,3-dihydro-indol-1-ylmethyl}-benzoic acid], 2.33 µM. With `O=C(O)c1cccc(CN2C(=O)/C(=C(\c3ccccc3)c3cccnc3)c3ccccc32)c1` [Example 63, 3-{2-Oxo-3-[1-phenyl-1-pyridin-3-yl-meth-(E)-ylidene]-2,3-dihydro-indol-1-ylmethyl}-benzoic acid], the EC50 came to 3.24 µM. Under `O=C(O)c1cccc(CN2C(=O)/C(=C(\c3ccccc3)c3cc(C(F)(F)F)ccc3Cl)c3ccccc32)c1` [Example 64, 3-{3-[1-(2-Chloro-5-trifluoromethyl-phenyl)-1-phenyl-meth-(E)-ylidene]-2-oxo-2,3-dihydro-indol-1-ylmethyl}-benzoic acid] stands 6.63 µM; under `O=C(O)c1cccc(CN2C(=O)/C(=C(\c3ccccc3)c3cc(C(F)(F)F)cc(C(F)(F)F)c3)c3ccccc32)c1` [Example 65, 3-{3-[1-(3,5-Bis-trifluoromethyl-phenyl)-1-phenyl-meth-(E)-ylidene]-2-oxo-2,3-dihydro-indol-1-ylmethyl}-benzoic acid], 3.41 µM.
